Marks after values point to notes of the source that are not given here.
What was measured:
Rat SGLT1 = target: T1, Rat SGLT1 (Rattus norvegicus, UniProt P53790); assay: 14C-AMG uptake in CHOK cells expressing rat SGLT1; type: cell-based; details: mean of 2 experiments
T1 construct: expressed in transfected cells; host or cells: CHO-K (CHOK) cells
T1 sequence (P53790 1-665): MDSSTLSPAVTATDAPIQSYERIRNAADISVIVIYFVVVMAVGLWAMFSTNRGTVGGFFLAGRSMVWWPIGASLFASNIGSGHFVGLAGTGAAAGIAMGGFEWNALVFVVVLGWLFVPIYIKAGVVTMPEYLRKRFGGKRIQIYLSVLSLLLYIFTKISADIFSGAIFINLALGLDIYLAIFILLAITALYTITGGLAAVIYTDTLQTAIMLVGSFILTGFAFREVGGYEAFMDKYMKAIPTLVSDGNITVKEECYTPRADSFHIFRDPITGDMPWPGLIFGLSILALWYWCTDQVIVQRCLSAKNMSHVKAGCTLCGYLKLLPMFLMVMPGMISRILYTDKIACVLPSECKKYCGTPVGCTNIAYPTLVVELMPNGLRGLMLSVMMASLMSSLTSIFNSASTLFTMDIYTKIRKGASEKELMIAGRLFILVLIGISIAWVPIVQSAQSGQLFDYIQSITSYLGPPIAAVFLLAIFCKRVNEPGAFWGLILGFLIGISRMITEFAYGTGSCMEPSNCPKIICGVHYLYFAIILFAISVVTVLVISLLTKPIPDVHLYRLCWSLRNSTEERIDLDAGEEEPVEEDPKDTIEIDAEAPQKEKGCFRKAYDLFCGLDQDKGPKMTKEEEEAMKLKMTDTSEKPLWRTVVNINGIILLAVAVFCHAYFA
Method: (§1) Cells were seeded into 96-well plates.
(§2) All data are presented as mean ± standard error.

Mouse SGLT1 = target: T2, Mouse SGLT1 (Mus musculus, UniProt Q8C3K6); assay: 14C-AMG uptake in CHOK cells expressing mouse SGLT1; type: cell-based; details: CHO-mSGLT1 cells, mean of 2 experiments
T2 construct: expressed in transfected cells; host or cells: CHO-K (CHOK) cells
T2 sequence (Q8C3K6 1-665): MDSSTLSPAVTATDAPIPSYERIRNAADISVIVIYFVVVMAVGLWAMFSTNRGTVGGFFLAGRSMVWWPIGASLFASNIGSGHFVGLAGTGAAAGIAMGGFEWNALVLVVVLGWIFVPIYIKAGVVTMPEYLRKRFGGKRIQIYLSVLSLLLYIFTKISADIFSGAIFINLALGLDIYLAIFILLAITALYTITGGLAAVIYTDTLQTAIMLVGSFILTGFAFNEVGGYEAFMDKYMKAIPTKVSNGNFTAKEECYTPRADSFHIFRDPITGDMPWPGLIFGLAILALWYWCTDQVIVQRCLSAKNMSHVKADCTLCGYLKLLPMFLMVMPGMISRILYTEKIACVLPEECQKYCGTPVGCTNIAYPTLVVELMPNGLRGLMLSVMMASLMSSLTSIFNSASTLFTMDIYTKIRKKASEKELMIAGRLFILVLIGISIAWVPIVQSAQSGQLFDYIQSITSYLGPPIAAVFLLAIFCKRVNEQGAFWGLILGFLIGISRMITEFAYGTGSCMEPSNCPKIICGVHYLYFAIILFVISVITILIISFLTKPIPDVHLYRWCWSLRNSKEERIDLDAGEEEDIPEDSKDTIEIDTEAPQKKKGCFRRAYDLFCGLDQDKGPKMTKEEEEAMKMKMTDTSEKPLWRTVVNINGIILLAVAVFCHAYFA
Method: as §1, §2

db/db mice = assay: Single-dose blood glucose lowering in db/db mice; type: in vivo, mouse; details: for reduction of BG levels compared with vehicle-treated mice: 1 hour after treatment; for BG level: 6 hours, vehicle 479±3.9
Description: (§3) Four rodent models were used in these experiments: (1) male C57BL/6J mice fed with a high-fat diet (D-12492 with 60 kcal% fat, Research Diets, Inc, New Jersey, USA) (diet-induced obese, insulin resistantmice [DIO]); (2) male C57BL/ksj-db/db hyperglycemic mice; (3) male Zucker fatty (ZF) obese, insulin resistant rats; and (4) male ZDF obese, hyperglycemic rats. All animals were housed according to standard procedures following a protocol approved by the IACUC in Drug Discovery at Johnson & Johnson Pharmaceutical Research & Development, LLC.
(§4) BG levels were monitored at 0, 0.5, 1, 3, 6, and 24 hours after dosing. […] BG levels were monitored weekly, and HbA1c, plasma glucose, and insulin levels were determined at the end of the 4-week treatment. An oral glucose tolerance test (OGTT) ([…] of body weight, given by gavage) was conducted in ZDF rats after 4 weeks of treatment. Blood was sampled at 0, 30, 60, and 120 minutes after glucose challenge from the tail vein for measurement of BG levels using a glucometer (One Touch Ultra, LifeScan, Milpitas, California, USA) and plasma insulin using ELISA method (ALPCO, Salem, New Hampshire, USA).

ZDF rats = assay: 4-week treatment of ZDF rats (glycemic control, OGTT); type: in vivo, rat; details: 4 weeks; for OGTT Ratio of insulin AUC/glucose AUC / Insulin / HbA1c / OGTT Plasma insulin (AUC0–120 min) / Fed plasma glucose / OGTT Blood glucose (AUC0–120 min): ZDF rats; for OGTT Ratio of insulin AUC/glucose AUC: vehicle 0.003±0.000; for Insulin: vehicle 5.2±0.4; for HbA1c: vehicle 11.5±0.3; for OGTT Plasma insulin (AUC0–120 min): vehicle 221±13; for Fed plasma glucose: vehicle 598.2±18.0; for OGTT Blood glucose (AUC0–120 min): vehicle 70,704±1289
Description: as §3, §4

ZF rats = assay: 3-week treatment of ZF rats (body weight, UGE, calorimetry); type: in vivo; details: ZF rat, 3 mg/kg, 3 weeks
Description: as §3
Body weight, food intake, and BG levels were monitored weekly. UGE and indirect calorimetry were conducted in the fourth week of treatment during the compound treatment. […] Body weight, food intake, and BG were measured weekly during the 19-day treatment period. UGE, body fat, and indirect calorimetric studies were conducted at the end of this study.

In the case of `Cc1ccc([C@@H]2O[C@H](CO)[C@@H](O)[C@H](O)[C@H]2O)cc1Cc1ccc(-c2ccc(F)cc2)s1` [canagliflozin, Canagliflozin], the IC50 (Rat SGLT1) is reported as 571 nM, the IC50 (Mouse SGLT1) is reported as greater than 1000 nM and the “reduction of BG levels compared with vehicle-treated mice” value (db/db mice; single dose 1 mg/kg) is reported as 22%. The BG level (db/db mice; single dose 1 mg/kg) was 208 ± 9.6 mg/dL, the “reduction of BG levels compared with vehicle-treated mice” value (db/db mice; single dose 10 mg/kg) was 36% and the BG level (db/db mice; single dose 10 mg/kg) was 118 ± 9.0 mg/dL. The “OGTT Ratio of insulin AUC/glucose AUC” value (ZDF rats; 3 mg/kg) was 0.013±0.002 ^a (ng/ml•min)/mg/dl•min), the Insulin (ZDF rats; 3 mg/kg) was 7.9±0.1 ^a ng/ml and the HbA1c (ZDF rats; 3 mg/kg) was 7.1±0.3 ^a %. The “OGTT Plasma insulin (AUC0–120 min)” value (ZDF rats; 3 mg/kg) was 342±27 ^a ng/ml•min, the Fed plasma glucose (ZDF rats; 3 mg/kg) was 248.0±13.5 ^a mg/dl and the “OGTT Blood glucose (AUC0–120 min)” value (ZDF rats; 3 mg/kg) was 27,883±1806 ^a mg/dl•min. For the same molecule, the “OGTT Ratio of insulin AUC/glucose AUC” value (ZDF rats; 10 mg/kg) was 0.017±0.002 ^a (ng/ml•min)/mg/dl•min), the Insulin (ZDF rats; 10 mg/kg) was 7.9±0.1 ^a ng/ml and the HbA1c (ZDF rats; 10 mg/kg) was 5.6±0.3 ^a %. The “OGTT Plasma insulin (AUC0–120 min)” value (ZDF rats; 10 mg/kg) was 403±33 ^a ng/ml•min, the Fed plasma glucose (ZDF rats; 10 mg/kg) was 182.0±7.1 ^a mg/dl and the “OGTT Blood glucose (AUC0–120 min)” value (ZDF rats; 10 mg/kg) was 23,989±1881 ^a mg/dl•min. The “OGTT Ratio of insulin AUC/glucose AUC” value (ZDF rats; 30 mg/kg) was 0.018±0.002 ^a (ng/ml•min)/mg/dl•min), the Insulin (ZDF rats; 30 mg/kg) was 7.8±0.1 ^a ng/ml and the HbA1c (ZDF rats; 30 mg/kg) was 5.5±0.3 ^a %. For the same molecule, the “OGTT Plasma insulin (AUC0–120 min)” value (ZDF rats; 30 mg/kg) was 288 ± 34 ng·min/mL, the Fed plasma glucose (ZDF rats; 30 mg/kg) was 199.9±14.7 ^a mg/dl and the “OGTT Blood glucose (AUC0–120 min)” value (ZDF rats; 30 mg/kg) was 16,549±822 ^a mg/dl•min. For the same molecule, the “increase in the insulin/glucose ratio following an OGTT, relative to vehicle-treated animals” value (ZDF rats; ZDF rats, 3, 10 or 30 mg/kg) was 4-to-6 fold, the “Feeding efficiency index (body weight gain/food intake)” value (ZF rats; vehicle 0.30±0.01) was 0.25±0.01 and the RER (ZF rats; vehicle 1.10±0.01) was 1.06±0.01 ^b. For the same molecule, the UGE (ZF rats; vehicle 1.8±1.1) was 29.10±3.5 ^b mg/4 h, the Epididymal fat weight (ZF rats; vehicle 10.8±0.3) was 9.5±0.3 ^b g and the Liver weight (ZF rats; vehicle 28.5±0.8) was 25.0±1.4 ^b g. The “Fed BG” value (ZF rats; vehicle 149.6±22.9) was 118.9±4.3 ^b mg/dl, the Body weight (ZF rats; vehicle 437.9±11.5) was 408.1±7.7 ^b g and the Total food intake (ZF rats; vehicle 645.3±21.2) was 647.9 ± 18.9 g. For the same molecule, the “Oxygen consumption (VO2)” value (ZF rats; vehicle 1560±28) was 26.37 ± 0.55 mL/min/kg.

Reference: paper PMC3280264 (PLoS ONE, 2012)
